Test results published in PubChem BioAssay (NCI).
Values joined by “and” are separate entries in the source; they are usually repeats but may differ in a detail not shown here. Equal entries are not always repeated.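 A five-concentration, 48-hour dose response in 96-well plates underlies each endpoint, interpolated linearly between surrounding concentrations. The concentration for 50% growth inhibition is given as GI50. At the TGI there is no net growth.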

Experiments:
Test in all cases: growth of human tumour cells (NCI), 48 h
HOP-62 NSCLC = system: HOP-62 NSCLC
MALME-3M melanoma = system: MALME-3M melanoma
SF-268 CNS = system: SF-268 CNS
NCI-H460 lung = system: NCI-H460 lung
HL-60(TB) leukemia = system: HL-60(TB) leukemia
U251 CNS = system: U251 CNS
OVCAR-5 ovarian = system: OVCAR-5 ovarian
A549 NSCLC = system: A549 NSCLC
T-47D breast = system: T-47D breast
PC-3 prostate = system: PC-3 prostate

Row | Compound | TGI (HOP-62 NSCLC) | TGI (MALME-3M melanoma) | TGI (SF-268 CNS) | TGI (NCI-H460 lung) | TGI (HL-60(TB) leukemia) | TGI (U251 CNS) | TGI (OVCAR-5 ovarian) | TGI (A549 NSCLC) | GI50 (HOP-62 NSCLC) | GI50 (MALME-3M melanoma) | GI50 (SF-268 CNS) | GI50 (NCI-H460 lung) | GI50 (HL-60(TB) leukemia) | GI50 (U251 CNS) | GI50 (OVCAR-5 ovarian) | GI50 (A549 NSCLC) | TGI (T-47D breast) [µM] | GI50 (PC-3 prostate) | TGI (PC-3 prostate) [µM] | GI50 (T-47D breast) [µM]
1 | COc1ccccc1NC(=O)CC(=O)N/N=C/c1ccc(N(CCC#N)S(=O)(=O)c2ccccc2)cc1 | > 100 µM | > 100 µM | > 100 µM | > 100 µM | > 100 µM | > 100 µM | > 100 µM | > 100 µM | – | – | – | – | – | – | – | – | – | – | – | –
2 | O=C(NC12CC3CC(CC(C3)C1)C2)C(=O)c1c[nH]c2ccccc12 | 36.7 µM | 28.3 µM | 30.4 µM | 25.7 µM | 52.8 µM | 26.7 µM | 32.1 µM | 30.2 µM | – | – | – | – | – | – | – | – | – | – | – | –
3 | COc1cccc(NC(=O)/C(Cc2nc3ccccc3nc2C)=N/NC(=O)C[n+]2ccccc2)c1 | > 100 µM | > 100 µM | > 100 µM | > 100 µM | > 100 µM | 39.8 µM | > 100 µM | > 100 µM | – | – | – | – | – | – | – | – | – | – | – | –
4 | COc1ccc(OCC(=O)O)c(C(=O)CCC(=O)O)c1 | > 10 µM | > 100 µM | > 100 µM | > 100 µM | > 100 µM | > 100 µM | > 100 µM | > 100 µM | – | – | – | – | – | – | – | – | – | – | – | –
5 | COC(C)(C)C/C=C/C(C)=C/C=C/C(C)=C\C=C\C(C)=C\C=C\C=C(C)\C=C\C=C(C)\C=C\C=C(C)\C=C\CC(C)(C)OC | > 150 µg/mL | > 150 µg/mL | > 150 µg/mL | > 150 µg/mL | > 150 µg/mL | > 150 µg/mL | > 150 µg/mL | > 150 µg/mL | > 150 µg/mL | > 150 µg/mL | > 150 µg/mL | > 150 µg/mL | > 150 µg/mL | > 150 µg/mL | > 150 µg/mL | > 150 µg/mL | – | – | – | –
6 | O=c1c2cc(Cl)ccc2sc2cccc(Cl)c12 | > 100 µM | – | > 100 µM | > 100 µM | > 100 µM | > 100 µM | > 100 µM | > 100 µM | – | – | – | – | – | – | – | – | – | – | – | –
7 | CC(=O)OCc1cc2ccccc2nc1C(Br)(Br)Br | 56.3 µM | 18.1 µM | 39.9 µM | 33.8 µM | 40.9 µM | 28.1 µM | 30.7 µM | 31.2 µM | – | – | – | – | – | – | – | – | > 100 | – | – | –
8 | CN(C)CCCNC(=O)c1cc(NC(=O)c2cc(NC(=O)CCNS(=O)(=O)c3ccc4c(c3)C(=O)c3ccccc3C4=O)cn2C)cn1C | – | – | > 100 µM | > 100 µM | > 100 µM | > 100 µM | > 100 µM | > 100 µM | – | – | > 100000 nM | > 100000 nM | > 100000 nM | > 100000 nM | > 100000 nM | > 100000 nM | > 100 | > 100000 nM | > 100 | > 100
9 | CCN(CC)c1ccc(N=Nc2ccc(-c3nc4ccc[n+](C)c4o3)cc2)cc1 | 29.9 µM | 4.31 µM | 31.4 µM | 29.2 µM | 7.32 µM | 16.6 µM | 16.3 µM | 27.1 µM | – | – | – | – | – | – | – | – | – | – | – | –
10 | N#CC1CCCCCCCCCCC(=O)N(CCCl)C1=O (configuration not stated) | > 100 µM | > 100 µM | > 100 µM | > 100 µM | > 100 µM | > 100 µM | > 100 µM | > 100 µM | – | – | – | – | – | – | – | – | – | – | – | –
11 | Cc1ccc(Cl)cc1NC(=O)c1sc2nc3c(cc2c1N)C(=O)CCC3 | > 100 µM | – | > 100 µM | > 100 µM | – | > 100 µM | > 100 µM | > 100 µM | > 100000 nM | – | > 100000 nM | 3730 nM | – | 4450 nM | > 100000 nM | 3850 nM | > 100 | 4340 nM | > 100 | > 100
12 | COC(=O)CC[C@H](Cc1ccccc1)NC(=O)c1csc([C@@H](C[C@H](C(C)C)N(C)C(=O)[C@@H](NC(=O)[C@H]2CCCCN2C)C(C)C)OC(C)=O)n1 | > 25 µM | > 25 µM | > 25 µM | > 25 µM | – | > 25 µM | > 25 µM | > 25 µM | < 2.5 nM | 7.53 µM | 7.85 nM | < 2.5 nM | – | < 2.5 nM | 8.16 nM | 7.44 nM | – | < 2.5 nM | > 25 | –
13 | Cc1cc(C)cc(NC(N)=S)c1 | > 100 µM | > 100 µM | > 100 µM | > 100 µM | > 100 µM | > 100 µM | > 100 µM | > 100 µM | – | – | – | – | – | – | – | – | – | – | – | –
14 | CC(=O)C1=C(O)CC2CC3c4[nH]c5ccccc5c4CCN3CC2C1 (configuration not stated) | > 100 µM | > 100 µM | > 100 µM | > 100 µM | > 100 µM | > 100 µM | > 100 µM | > 100 µM | – | – | – | – | – | – | – | – | – | – | – | –
15 | COC(=O)Nc1nc2ccc(Br)cc2[nH]1 | > 100 µM | > 100 µM | > 100 µM | > 100 µM | 90 µM | 87 µM | > 100 µM | > 100 µM | – | – | – | – | – | – | – | – | – | – | – | –
16 | COC(=O)[C@@H](C)C[C@H](Cc1ccccc1)NC(=O)c1csc([C@@H](C[C@H](C(C)C)N(C)C(=O)[C@@H](NC(=O)[C@H]2CCCCN2C)C2CC2)OC(C)=O)n1 | > 16.5 µM | – | > 16.5 µM | > 16.5 µM | 0.000839 µM and < 0.00165 µM | > 16.5 µM | > 16.5 µM | > 16.5 µM | 0.745 nM and 1.65 nM | 0.000312 µM | 0.594 nM and 1.65 nM | 0.362 nM and 1.65 nM | 0.235 nM and < 1.65 nM | 0.457 nM and 1.65 nM | 3.84 nM and 6.04 nM | 2.7 nM and 1.65 nM | – | 0.211 nM and 1.65 nM | > 16.5 | –
17 | CN(C)CC/[N+]([O-])=C(/c1ccccc1)C12CC3CC(CC(C3)C1)C2 | 28.9 µM | 55.2 µM | 35.9 µM | 35.1 µM | 26.1 µM | 29.7 µM | 32 µM | 32.9 µM | – | – | – | – | – | – | – | – | – | – | – | –
18 | O=C(c1ccccc1)c1cn(/N=C\c2ccccc2)c(=O)nc1-c1ccccc1 | > 100 µM | > 100 µM | > 100 µM | > 100 µM | – | > 100 µM | > 100 µM | > 100 µM | – | – | – | – | – | – | – | – | – | – | – | –
19 | CN1C(=O)C2C(C1=O)C1(O)c3ccccc3C2(N)c2ccccc21 (configuration not stated) | > 100 µM | > 100 µM | > 100 µM | > 100 µM | > 100 µM | > 100 µM | > 100 µM | > 100 µM | – | – | – | – | – | – | – | – | – | – | – | –
